According to US6150359A, “Naphthyridinones for inhibiting protein tyrosine kinase and cell cycle kinase mediated cellular proliferation” (Warner-Lambert Company, priority 2000, dated 2000):

What was measured:
[1] = target: T1, c-Src (Homo sapiens, UniProt P12931); test: c-Src kinase assay, 32P incorporation into polyglutamate-tyrosine; format: biochemical; settings: 5 μM ATP
T1 construct: made in house; host or cells: baculovirus infected insect cells
Description: Other Kinases. c-Src kinase is purified from baculovirus infected insect cell lysates using an antipeptide monoclonal antibody directed against the N-terminal 2-17 amino acids as described previously by Fry, et al., Anticancer Drug Design, 1994;9:331-351. Protein kinase C (PKC.) is obtained as a rat brain preparation from Promega.
c-Src. The antibody, covalently linked to 0.65-μm latex beads, is added to a suspension of insect cell lysis buffer comprised of 150 mM NaCl, 50 mM Tris pH 7.5, 1 mM DTT, 1% NP-40, 2 mM EGTA, 1 mM sodium vanadate, 1 mM PMSF, 1 μg/mL each of leupeptin, pepstatin, and aprotinin. Insect cell lysate containing the c-Src protein is incubated with these beads for 3 to 4 hours at 4° C. with rotation. At the end of the lysate incubation, the beads are rinsed three times in lysis buffer, resuspended in lysis buffer containing 10% glycerol, and frozen. These latex beads are thawed, rinsed three times in assay buffer which is comprised of 40 mM tris pH 7.5, 5 mM magnesium chloride, and suspended in the same buffer. In a Millipore 96-well plate with a 0.65 μm polyvinylidine membrane bottom are added the reaction components: 10-μL c-Src beads, 10 μL of 2.5 mg/mL polyglutamate-tyrosine substrate, 5 μM ATP containing 0.2 μCi labeled ^32 P-ATP, 5 μL DMSO containing inhibitors or as a solvent control, and buffer to make the final volume 125 μL. The reaction is started at room temperature by addition of the ATP and quenched 10 minutes later by the addition of 125 μL of 30% TCA, 0.1 M sodium pyrophosphate for 15 minutes on ice. The plate is then filtered and the wells washed with two 250-μL aliquots of 15% TCA, 0.1 M pyrophosphate. The filters are punched, counted in a liquid scintillation counter, and the data examined for inhibitory activity in comparison to a known inhibitor such as erbstatin. The method is described more fully in J. Med. Chem., 1994;37:598-609.

[2] = target: T2, PDGF receptor (Rattus norvegicus, UniProt Q05030); test: PDGF Receptor Autophosphorylation Assay in rat aorta smooth muscle cells; format: cell-based; settings: PDGF-BB 30 ng/mL, 5 minutes, 2 hours preincubation, read-out: Inhibition of PDGF-Stimulated Receptor Autophosphorylation IC50
T2 construct: endogenous in cells; host or cells: rat aorta smooth muscle cells, primary culture, passages 5 to 20
T2 sequence (Q05030 32-1097): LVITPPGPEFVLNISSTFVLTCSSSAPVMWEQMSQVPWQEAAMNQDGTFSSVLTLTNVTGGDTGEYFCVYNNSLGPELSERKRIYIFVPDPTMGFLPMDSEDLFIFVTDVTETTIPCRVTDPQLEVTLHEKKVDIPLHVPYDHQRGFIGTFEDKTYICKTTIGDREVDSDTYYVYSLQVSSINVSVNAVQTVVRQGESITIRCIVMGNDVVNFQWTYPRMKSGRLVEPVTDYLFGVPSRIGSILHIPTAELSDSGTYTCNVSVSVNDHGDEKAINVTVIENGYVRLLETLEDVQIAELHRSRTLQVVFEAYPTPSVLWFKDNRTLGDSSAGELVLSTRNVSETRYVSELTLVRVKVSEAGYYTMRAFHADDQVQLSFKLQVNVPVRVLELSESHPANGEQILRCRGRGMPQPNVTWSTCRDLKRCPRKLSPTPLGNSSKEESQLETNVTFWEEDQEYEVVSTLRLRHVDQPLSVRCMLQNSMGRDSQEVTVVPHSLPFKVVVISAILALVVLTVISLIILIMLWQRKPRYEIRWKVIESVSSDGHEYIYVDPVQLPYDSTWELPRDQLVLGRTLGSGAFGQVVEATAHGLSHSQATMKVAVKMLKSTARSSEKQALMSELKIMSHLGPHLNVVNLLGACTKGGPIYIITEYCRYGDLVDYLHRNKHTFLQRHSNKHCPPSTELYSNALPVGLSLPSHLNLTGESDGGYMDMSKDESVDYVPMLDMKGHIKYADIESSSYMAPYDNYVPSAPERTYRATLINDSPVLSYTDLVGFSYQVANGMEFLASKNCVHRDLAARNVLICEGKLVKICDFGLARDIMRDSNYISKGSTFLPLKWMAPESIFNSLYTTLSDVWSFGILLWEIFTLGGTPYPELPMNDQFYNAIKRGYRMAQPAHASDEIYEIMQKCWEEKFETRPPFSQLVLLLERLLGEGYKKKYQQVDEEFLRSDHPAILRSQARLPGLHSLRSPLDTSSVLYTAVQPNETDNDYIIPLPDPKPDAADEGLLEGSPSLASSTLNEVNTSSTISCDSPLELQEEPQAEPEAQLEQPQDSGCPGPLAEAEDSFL
Description: PDGF Receptor Autophosphorylation Assay. Rat aorta smooth muscle cells (RASMC.) are isolated from the thoracic aorta of rats and explanted according to the method of Ross, J. Cell. Biol., 1971;30:172-186. Cells are grown in Dulbecco's modified Eagle's medium (DMEM, Gibco) containing 10% fetal calf serum (FBS, Hyclone, Logan, Utah), 1% glutamine (Gibco), and 1% penicillin/streptomycin (Gibco). Cells are identified as smooth muscle cells by their "hill and valley" growth pattern and by fluorescent staining with a monoclonal antibody specific for SMC […] (Sigma). RASMC are used between passages 5 and 20 for all experiments. Test compounds are prepared in dimethylsulfoxide (DMSO) in order to achieve consistency in the vehicle and to ensure compound solubility. Appropriate DMSO controls are simultaneously evaluated with the test compounds.
Rat aortic smooth muscle cells are grown to confluency in 100 mm dishes. Growth medium is removed and replaced with serum-free medium, and cells are incubated at 37° C. for an additional 24 hours. Test compounds are then added directly to the medium and cells incubated for an additional 2 hours. After 2 hours, PDGF-BB is added at a final concentration of 30 ng/mL for 5 minutes at 37° C. to stimulate autophosphorylation of PDGF receptors. Following growth factor treatment, the medium is removed, and cells are washed with cold phosphate-buffered saline and immediately lysed with 1 mL of lysis buffer (50 mM Hepes, pH 7.5, 150 mM NaCl, 10% glycerol, 1% Triton-X 100, 1 mM EDTA, 1 mM EGTA, 50 mM NaF, 1 mM sodium orthovanadate, 30 mM p-nitrophenyl phosphate, 10 mM sodium pyrophosphate, 1 mM phenylmethyl sulfonyl fluoride, 10 μg/mL aprotinin, and 10 μg/mL leupeptin). Lysates are centrifuged at 10,000×g for 10 minutes. Supernatants are incubated with 10 μL of rabbit anti-human PDGF type AB receptor antibody (1:1000) for 2 hours. Following the incubation, protein-A-sepharose beads are added for 2 hours with continuous mixing, and immune complexes bound to the beads washed four times with 1 mL lysis wash buffer. Immune complexes are solubilized in 40 μL of Laemmli sample buffer and electrophoresed in 8% to 16% SDS polyacrylamide gels. […] Following extensive washing with PBS-0.2% tween-20, the blots are incubated with horseradish peroxidase labeled goat anti-mouse IgG (1:5000; Bio-Rad Inc., Hercules, Calif.), and protein levels are detected by enhanced chemiluminescence (ECL) detection system according to the instructions of the supplier (Amersham Inc., Arlington Heights, Ill.). The density of the protein bands are determined using NIH Image software (v. 1.56) and IC50 values are generated from the densitometric data.

T1 sequence (P12931 whole entry, species assumed): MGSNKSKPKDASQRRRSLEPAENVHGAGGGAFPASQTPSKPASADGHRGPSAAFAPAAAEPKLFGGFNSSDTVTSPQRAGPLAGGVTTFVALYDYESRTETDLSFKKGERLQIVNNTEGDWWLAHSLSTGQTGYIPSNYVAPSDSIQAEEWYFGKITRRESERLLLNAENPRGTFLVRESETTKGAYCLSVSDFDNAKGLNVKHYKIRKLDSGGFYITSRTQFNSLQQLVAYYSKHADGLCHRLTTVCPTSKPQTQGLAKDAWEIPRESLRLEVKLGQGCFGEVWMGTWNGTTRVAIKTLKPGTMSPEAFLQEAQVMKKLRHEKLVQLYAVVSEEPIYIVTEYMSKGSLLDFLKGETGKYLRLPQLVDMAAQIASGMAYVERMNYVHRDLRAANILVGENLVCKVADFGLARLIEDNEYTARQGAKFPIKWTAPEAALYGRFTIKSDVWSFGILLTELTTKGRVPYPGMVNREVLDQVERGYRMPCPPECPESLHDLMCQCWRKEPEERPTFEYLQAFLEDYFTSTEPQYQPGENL

Structure (SMILES) | IC50 [1] | IC50 [2]
CCN(CC)CCCCNc1cc2c(cn1)cc(-c1c(Cl)cccc1Cl)c(=O)n2C [Example F, 3-(2,6-dichlorophenyl)-7-[4-(diethylamino)butylamino]-1-methyl-1H-[1,6]naphthyridin-2-one] | 0.04 µM | 0.49 µM
CN1CCN(CCCNc2cc3c(cn2)cc(-c2c(Cl)cccc2Cl)c(=O)n3C)CC1 [Example H, 3-(2,6-dichlorophenyl)-1-methyl-7-[3-(4-methylpiperazin-1-yl)propylamino]-1H-[1,6]naphthyridin-2-one] | 0.06 µM | > 10 µM
CCN(CC)CCOc1ccc(Nc2cc3c(cn2)cc(-c2c(Cl)cccc2Cl)c(=O)n3C)cc1 [Example P, 3-(2,6-dichlorophenyl)-7-[(4-(2-(diethylamino)ethoxy)phenyl)amino]-1-methyl-1H-[1,6]naphthyridin-2-one] | 0.08 µM | 0.23 µM
CN1CCN(CCOc2ccc(Nc3cc4c(cn3)cc(-c3c(Cl)cccc3Cl)c(=O)n4C)cc2)CC1 [Example S, 3-(2,6-dichlorophenyl)-1-methyl-7-[(4-(2-(4-methylpiperazin-1-yl)ethoxy)phenyl)amino]-1H-[1,6]naphthyridin-2-one] | 0.02 µM | 0.81 µM
